Data published in publication PMC6409085, “Three odorant-binding proteins are involved in the behavioral response of Sogatella furcifera to rice plant volatiles” (PeerJ, 2019).
Several values for one entry are separate records, joined by “and”; a condition that tells them apart may be missing. Identical values can stand only once.

Tests used:
[1] = target: SfurOBP1 (Sogatella furcifera, UniProt V5T8N5); test: biochemical; format: binding; details: for Fluorescence competitive binding assay, fluorescence intensity: OBP1, three replicate columns
In short: (§1)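 First, 2.0 µM protein in 50 mM Tris-HCl (pH 7.4) was titrated with 1-NPN to obtain K1-NPN. Then odorants (2–20 µM final) competed against 2.0 µM 1-NPN, with fluorescence (ex 337 nm) recorded after 2 min. Ki was computed from IC50 via Ki = IC50/(1 + [1-NPN]/K1-NPN).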

[2] = target: SfurOBP11 (Sogatella furcifera, UniProt V5T6E3); test: biochemical; format: binding
In short: as §1

[3] = target: SfurOBP2 (Sogatella furcifera, UniProt V5T759); test: biochemical; format: binding
In short: as §1

[4] = target: SfurOBP3 (Sogatella furcifera, UniProt V5T818); test: biochemical; format: binding; details: for Fluorescence competitive binding assay, fluorescence intensity: OBP3, three replicate columns
In short: as §1

[5] = system: S. furcifera adults; test: Y-tube olfactometer behavioral trials; format: in vivo, Sogatella furcifera; details: odorant 50 µL/L vs hexane; adults
In short: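 Single S. furcifera adults (2 days post-emergence, starved 0.5 h) chose between odorant (100 µL of 50 µL/L on filter paper) and hexane control in a glass Y-tube, charcoal-filtered humidified air 300 mL/min per arm, 25 ± 1 °C, 50% RH. Choice scored if insect passed half an arm and stayed >1 min within 10 min; 45 insects per compound, chi-squared test.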

SfurOBP2, sequence (V5T759 entry or part of it): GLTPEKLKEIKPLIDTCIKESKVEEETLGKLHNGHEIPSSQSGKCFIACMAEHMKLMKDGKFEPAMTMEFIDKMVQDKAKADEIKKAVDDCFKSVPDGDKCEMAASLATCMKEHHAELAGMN
SfurOBP1, sequence (V5T8N5 entry or part of it): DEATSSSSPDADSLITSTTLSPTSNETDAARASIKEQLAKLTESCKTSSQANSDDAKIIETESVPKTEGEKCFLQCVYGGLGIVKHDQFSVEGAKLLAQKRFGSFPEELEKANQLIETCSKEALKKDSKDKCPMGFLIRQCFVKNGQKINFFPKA
SfurOBP11, sequence (V5T6E3 entry or part of it): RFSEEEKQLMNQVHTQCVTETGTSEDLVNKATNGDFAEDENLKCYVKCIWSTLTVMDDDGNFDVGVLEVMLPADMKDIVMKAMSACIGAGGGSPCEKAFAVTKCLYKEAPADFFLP
SfurOBP3, sequence (V5T818 entry or part of it): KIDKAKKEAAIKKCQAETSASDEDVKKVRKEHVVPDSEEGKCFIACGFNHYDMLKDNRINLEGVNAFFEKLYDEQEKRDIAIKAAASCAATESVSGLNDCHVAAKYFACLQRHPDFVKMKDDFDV

SMILES: CCCCCCCCCCCCCC [n-tetradecane]
- Fluorescence competitive binding assay, fluorescence intensity ([1]; ligand concentration 2 (μM)): 6022 and 9475 and 7407
- Fluorescence competitive binding assay, fluorescence intensity ([1]; ligand concentration 4 (μM)): 7163 and 8831 and 6832
- Fluorescence competitive binding assay, fluorescence intensity ([1]; ligand concentration 6 (μM)): 9235 and 7734 and 8738
- Fluorescence competitive binding assay, fluorescence intensity ([1]; ligand concentration 8 (μM)): 7490 and 9773 and 9402
- Fluorescence competitive binding assay, fluorescence intensity ([1]; ligand concentration 10 (μM)): 10034 and 9701 and 9801
- Fluorescence competitive binding assay, fluorescence intensity ([1]; ligand concentration 12 (μM)): 16511 and 14895 and 12657
- Fluorescence competitive binding assay, fluorescence intensity ([1]; ligand concentration 14 (μM)): 9553 and 12263 and 10210
- Fluorescence competitive binding assay, fluorescence intensity ([1]; ligand concentration 16 (μM)): 10515 and 10611 and 10617
- Fluorescence competitive binding assay, fluorescence intensity ([1]; ligand concentration 18 (μM)): 11876 and 13682 and 11119
- Fluorescence competitive binding assay, fluorescence intensity ([1]; ligand concentration 20 (μM)): 17922 and 11049 and 10258
- IC50 ([1]; SfurOBP1, protein and 1-NPN both 2.0 µM, competitor 2-20 µM, read-out: IC50): > 20 µM
- IC50 ([2]; SfurOBP11, protein and 1-NPN both 2.0 µM, competitor 2-20 µM, read-out: IC50): > 20 µM
- Fluorescence intensity, fluorescence competitive binding assay, OBP11 ([2]; ligand concentration 2, replicate 1): 29943
- Fluorescence intensity, fluorescence competitive binding assay, OBP11 ([2]; ligand concentration 2, replicate 2): 27499
- Fluorescence intensity, fluorescence competitive binding assay, OBP11 ([2]; ligand concentration 2, replicate 3): 28054
- Fluorescence intensity, fluorescence competitive binding assay, OBP11 ([2]; ligand concentration 4, replicate 1): 30256
- Fluorescence intensity, fluorescence competitive binding assay, OBP11 ([2]; ligand concentration 4, replicate 2): 30866
- Fluorescence intensity, fluorescence competitive binding assay, OBP11 ([2]; ligand concentration 4, replicate 3): 29645
- Fluorescence intensity, fluorescence competitive binding assay, OBP11 ([2]; ligand concentration 6, replicate 1): 26462
- Fluorescence intensity, fluorescence competitive binding assay, OBP11 ([2]; ligand concentration 6, replicate 2): 29047
- Fluorescence intensity, fluorescence competitive binding assay, OBP11 ([2]; ligand concentration 6, replicate 3): 31220
- Fluorescence intensity, fluorescence competitive binding assay, OBP11 ([2]; ligand concentration 8, replicate 1): 26278
- Fluorescence intensity, fluorescence competitive binding assay, OBP11 ([2]; ligand concentration 8, replicate 2): 28884
- Fluorescence intensity, fluorescence competitive binding assay, OBP11 ([2]; ligand concentration 8, replicate 3): 31318
- Fluorescence intensity, fluorescence competitive binding assay, OBP11 ([2]; ligand concentration 10, replicate 1): 27323
- Fluorescence intensity, fluorescence competitive binding assay, OBP11 ([2]; ligand concentration 10, replicate 2): 28751
- Fluorescence intensity, fluorescence competitive binding assay, OBP11 ([2]; ligand concentration 10, replicate 3): 30741
- Fluorescence intensity, fluorescence competitive binding assay, OBP11 ([2]; ligand concentration 12, replicate 1): 30511
- Fluorescence intensity, fluorescence competitive binding assay, OBP11 ([2]; ligand concentration 12, replicate 2): 30637
- Fluorescence intensity, fluorescence competitive binding assay, OBP11 ([2]; ligand concentration 12, replicate 3): 30384
- Fluorescence intensity, fluorescence competitive binding assay, OBP11 ([2]; ligand concentration 14, replicate 1): 29980
- Fluorescence intensity, fluorescence competitive binding assay, OBP11 ([2]; ligand concentration 14, replicate 2): 30187
- Fluorescence intensity, fluorescence competitive binding assay, OBP11 ([2]; ligand concentration 14, replicate 3): 31537
- Fluorescence intensity, fluorescence competitive binding assay, OBP11 ([2]; ligand concentration 16, replicate 1): 25150
- Fluorescence intensity, fluorescence competitive binding assay, OBP11 ([2]; ligand concentration 16, replicate 2): 28430
- Fluorescence intensity, fluorescence competitive binding assay, OBP11 ([2]; ligand concentration 16, replicate 3): 29261
- Fluorescence intensity, fluorescence competitive binding assay, OBP11 ([2]; ligand concentration 18, replicate 1): 33050
- Fluorescence intensity, fluorescence competitive binding assay, OBP11 ([2]; ligand concentration 18, replicate 2): 34724
- Fluorescence intensity, fluorescence competitive binding assay, OBP11 ([2]; ligand concentration 18, replicate 3): 33545
- Fluorescence intensity, fluorescence competitive binding assay, OBP11 ([2]; ligand concentration 20, replicate 1): 33953
- Fluorescence intensity, fluorescence competitive binding assay, OBP11 ([2]; ligand concentration 20, replicate 2): 35669
- Fluorescence intensity, fluorescence competitive binding assay, OBP11 ([2]; ligand concentration 20, replicate 3): 33542
- IC50 ([3]; SfurOBP2, protein and 1-NPN both 2.0 µM, competitor 2-20 µM, read-out: IC50): > 20 µM
- Fluorescence competitive binding assay, OBP2 (raw fluorescence reading) ([3]; ligand concentration 2 (unit not given), replicate column 1 of 3): 17681
- Fluorescence competitive binding assay, OBP2 (raw fluorescence reading) ([3]; ligand concentration 2 (unit not given), replicate column 2 of 3): 15844
- Fluorescence competitive binding assay, OBP2 (raw fluorescence reading) ([3]; ligand concentration 2 (unit not given), replicate column 3 of 3): 16950
- Fluorescence competitive binding assay, OBP2 (raw fluorescence reading) ([3]; ligand concentration 4 (unit not given), replicate column 1 of 3): 17519
- Fluorescence competitive binding assay, OBP2 (raw fluorescence reading) ([3]; ligand concentration 4 (unit not given), replicate column 2 of 3): 20288
- Fluorescence competitive binding assay, OBP2 (raw fluorescence reading) ([3]; ligand concentration 4 (unit not given), replicate column 3 of 3): 20488
- Fluorescence competitive binding assay, OBP2 (raw fluorescence reading) ([3]; ligand concentration 6 (unit not given), replicate column 1 of 3): 19784
- Fluorescence competitive binding assay, OBP2 (raw fluorescence reading) ([3]; ligand concentration 6 (unit not given), replicate column 2 of 3): 21064
- Fluorescence competitive binding assay, OBP2 (raw fluorescence reading) ([3]; ligand concentration 6 (unit not given), replicate column 3 of 3): 19193
- Fluorescence competitive binding assay, OBP2 (raw fluorescence reading) ([3]; ligand concentration 8 (unit not given), replicate column 1 of 3): 20311
- Fluorescence competitive binding assay, OBP2 (raw fluorescence reading) ([3]; ligand concentration 8 (unit not given), replicate column 2 of 3): 19912
- Fluorescence competitive binding assay, OBP2 (raw fluorescence reading) ([3]; ligand concentration 8 (unit not given), replicate column 3 of 3): 20694
- Fluorescence competitive binding assay, OBP2 (raw fluorescence reading) ([3]; ligand concentration 10 (unit not given), replicate column 1 of 3): 21153
- Fluorescence competitive binding assay, OBP2 (raw fluorescence reading) ([3]; ligand concentration 10 (unit not given), replicate column 2 of 3): 20155
- Fluorescence competitive binding assay, OBP2 (raw fluorescence reading) ([3]; ligand concentration 10 (unit not given), replicate column 3 of 3): 21164
- Fluorescence competitive binding assay, OBP2 (raw fluorescence reading) ([3]; ligand concentration 12 (unit not given), replicate column 1 of 3): 17882
- Fluorescence competitive binding assay, OBP2 (raw fluorescence reading) ([3]; ligand concentration 12 (unit not given), replicate column 2 of 3): 20189
- Fluorescence competitive binding assay, OBP2 (raw fluorescence reading) ([3]; ligand concentration 12 (unit not given), replicate column 3 of 3): 20719
- Fluorescence competitive binding assay, OBP2 (raw fluorescence reading) ([3]; ligand concentration 14 (unit not given), replicate column 1 of 3): 19553
- Fluorescence competitive binding assay, OBP2 (raw fluorescence reading) ([3]; ligand concentration 14 (unit not given), replicate column 2 of 3): 20680
- Fluorescence competitive binding assay, OBP2 (raw fluorescence reading) ([3]; ligand concentration 14 (unit not given), replicate column 3 of 3): 20531
- Fluorescence competitive binding assay, OBP2 (raw fluorescence reading) ([3]; ligand concentration 16 (unit not given), replicate column 1 of 3): 20438
- Fluorescence competitive binding assay, OBP2 (raw fluorescence reading) ([3]; ligand concentration 16 (unit not given), replicate column 2 of 3): 19246
- Fluorescence competitive binding assay, OBP2 (raw fluorescence reading) ([3]; ligand concentration 16 (unit not given), replicate column 3 of 3): 20069
- Fluorescence competitive binding assay, OBP2 (raw fluorescence reading) ([3]; ligand concentration 18 (unit not given), replicate column 1 of 3): 24630
- Fluorescence competitive binding assay, OBP2 (raw fluorescence reading) ([3]; ligand concentration 18 (unit not given), replicate column 2 of 3): 24806
- Fluorescence competitive binding assay, OBP2 (raw fluorescence reading) ([3]; ligand concentration 18 (unit not given), replicate column 3 of 3): 23381
- Fluorescence competitive binding assay, OBP2 (raw fluorescence reading) ([3]; ligand concentration 20 (unit not given), replicate column 1 of 3): 26164
- Fluorescence competitive binding assay, OBP2 (raw fluorescence reading) ([3]; ligand concentration 20 (unit not given), replicate column 2 of 3): 20955
- Fluorescence competitive binding assay, OBP2 (raw fluorescence reading) ([3]; ligand concentration 20 (unit not given), replicate column 3 of 3): 19728
- Fluorescence competitive binding assay, fluorescence intensity ([4]; ligand concentration 2): 83183 and 87404 and 88774
- Fluorescence competitive binding assay, fluorescence intensity ([4]; ligand concentration 4): 91510 and 89708 and 93194
- Fluorescence competitive binding assay, fluorescence intensity ([4]; ligand concentration 6): 97532 and 94447 and 95269
- Fluorescence competitive binding assay, fluorescence intensity ([4]; ligand concentration 8): 93074 and 89520 and 89172
- Fluorescence competitive binding assay, fluorescence intensity ([4]; ligand concentration 10): 92952 and 88800 and 85833
- Fluorescence competitive binding assay, fluorescence intensity ([4]; ligand concentration 12): 87947 and 90919 and 89332
- Fluorescence competitive binding assay, fluorescence intensity ([4]; ligand concentration 14): 86216 and 85989 and 89098
- Fluorescence competitive binding assay, fluorescence intensity ([4]; ligand concentration 16): 77694 and 82013 and 80619
- Fluorescence competitive binding assay, fluorescence intensity ([4]; ligand concentration 18): 91776 and 100406 and 90755
- Fluorescence competitive binding assay, fluorescence intensity ([4]; ligand concentration 20): 89755 and 85247 and 85349
- IC50 ([4]; SfurOBP3, protein and 1-NPN both 2.0 µM, competitor 2-20 µM, read-out: IC50): > 20 µM
- number of insects choosing hexane arm [5]: 13
- number of insects choosing volatilies arm [5]: 14
- number of insects failed (no choice) [5]: 13
